Measured values from patent US9803180B2, “S-adenosylmethionine (SAM) synthase variants for the synthesis of artificial cofactors” (LEIBNIZ-INSTITUT FUR PFLANZENBIOCHEMIE STIFTUNG DES …, priority 2013, dated 2017).
“Also recorded” adds a separate entry of the source.

How the values were obtained:
Type in all cases: biochemical
[1] = Kinetic parameters for the conversion of S-alkylhomocysteines; standard SAM synthase assay, photometric detection of the cleaved phosphate
Excerpt: (§1) FIGS. 3A-3E show the rates of conversion of amino acid substrates catalyzed by the SAMS enzyme from Bacillus subtilis (FIG. 3A) and its variants I317V (FIG. 3B), I317A (FIG. 3C), I105V/I317A (FIG. 3D) or I105A/I317A (FIG. 3E) as a function of the substrate concentration. The reaction with L-methionine (open circles), D,L-methionine (closed circles), D,L-methionine-(methyl-D3) (x), D,L-ethionine (hatched circles), S-n-propyl-D,L-homocysteine (open triangles), S-n-butyl-D,L-homocysteine (closed triangles) or S-(2-methylvinyl)-D,L-homocysteine (diamonds) was assessed by spectrophotometric determination of phosphate which is released from the co-substrate ATP during the reaction.
The kinetic parameters for the conversion of S-alkylhomocysteines by Bacillus subtitlis SAM synthase and its variants as shown in Table 1 were calculated from the conversion rates of methionine and analogues as a function of the substrate concentration […] which were determined by the standard SAM synthase assay known in the art, i.e. by photometric detection of the cleaved phosphate.

[2] = Substrate spectrum: conversion of methionine and S-alkylhomocysteine derivatives by SAM synthase and variants; conditions: for substrate acceptance (which amino acid substrates are converted): in words
Excerpt: as §1
For these studies, a series of S-alkylhomocysteines with linear (D,L-methionine-(methyl-D3), -ethionine, -propionine and -buthionine), branched (D,L-isopropionine and -isobuthionines), unsaturated (D,L-methylvinylhomocysteine) and functionalized (D,L-hydroxyethionine and -carboxymethionine) alkyl groups were synthesized from D,L-homocysteine thiolactone and tested for conversion by the cloned (wildtype) SAM synthase.
As derived from a homology model which is based on the crystal structure of the protein from E. coli (PDB code 1XRA), a hydrophobic cleft formed from two conserved isoleucine residues hinders the generation of cofactor analogues from amino acid substrates with bulky alkyl residues (FIG. 2). Accordingly, both residues were exchanged against less voluminous amino acids by site-directed mutagenesis.
To further probe the role of the proximate isoleucine residue I105 in substrate recognition, the variants I105V/I317A and I105A/I317A were generated. […] Compared to the wild-type enzyme (FIG. 3A), substrate specificity of the variant I105A/I317A (FIG. 3E) is inverted (S-n-propylhomocysteine>S-n-butylhomocysteine>ethionine>>methionine).

[3] = Time course of formation of SAM and SAM derivatives, analyzed by HPTLC; conditions: racemic amino acid 10 mM, enzyme 10 mU ml^−1; in words
Experimental: FIGS. 4A-4C show the formation of SAM and SAM derivatives by the SAM synthase enzyme from Bacillus subtilis (FIG. 4A) or its variants I317V (FIG. 4B) and I317A (FIG. 4C). The conversion of the L-enantiomer of methionine (closed circles), ethionine (hatched circles), S-n-propylhomocysteine (open triangles) and S-n-butylhomocysteine (closed triangles) from the corresponding racemic amino acid (10 mM) was performed in the presence of equal amounts of enzyme (10 mU ml^−1). The reactions were analyzed by HPTLC.
The suitability of the wild-type protein and of variants with appropriate substrate specificity (I317V and I317A) for the synthesis of SAM and analogues was evaluated by high-performance thin-layer chromatography. Since the enzymes were not inhibited by the D-enantiomer of the amino acid substrates, methionine and its derivatives could be advantageously applied as racemic mixture of its stereoisomeres in these reactions. […] Accordingly, transformation of methionine and ethionine by SAMS-I317V in preparative synthetic reactions led to high conversion rates for the amino acid substrates. The syntheses were performed similar to the kinetic experiments but in larger scale (200 μmol). After prolonged incubation (18 hours) to reach maximum product yield, 84 and 89% of the L-amino acid was converted. […]

[4] = Preparative synthetic reactions (200 μmol): conversion of the L-amino acid; conditions: for conversion: 8 hours; for L-amino acid converted: 18 hours, 200 μmol scale
Experimental: The suitability of the wild-type protein and of variants with appropriate substrate specificity (I317V and I317A) for the synthesis of SAM and analogues was evaluated by high-performance thin-layer chromatography. Since the enzymes were not inhibited by the D-enantiomer of the amino acid substrates, methionine and its derivatives could be advantageously applied as racemic mixture of its stereoisomeres in these reactions. […] Accordingly, transformation of methionine and ethionine by SAMS-I317V in preparative synthetic reactions led to high conversion rates for the amino acid substrates. The syntheses were performed similar to the kinetic experiments but in larger scale (200 μmol). After prolonged incubation (18 hours) to reach maximum product yield, 84 and 89% of the L-amino acid was converted. In the production of the n-propyl- and n-butyl analogues of SAM by the variant I317A, 43% and 28% of conversion could be reached after 8 hours of reaction time. After product purification by cation exchange chromatography on SP-Sephadex C-25, SAM and its homologs could be recovered in final yields of 25, 17, 8 and 11%, respectively. As proven by ^1H NMR, the enzymatically produced SAM contained a high excess (≧90%) of the biologically active (S,S)-epimer.

[5] = Activity of further position 317 SAM synthase variants (Example 4)
Excerpt: The influence of position 317 on catalytic turnover and its crucial role in determination of substrate spectrum was additionally confirmed by introduction of other small- and medium-sized amino acid residues.

[6] = substrate S-(2-methylvinyl)-D,L-homocysteine
[7] = substrate S-n-butyl-D,L-homocysteine
[8] = substrate S-n-propyl-D,L-homocysteine
[9] = substrate D,L-methionine-(methyl-D3)

Substance | S0.5 ([1]; substrate D,L-ethionine) [mM] | Vmax ([1]; substrate D,L-ethionine) [nmol/min/mg] | h ([1]; substrate D,L-ethionine) | S0.5 ([1]; substrate D,L-methionine) [mM] | Vmax ([1]; substrate D,L-methionine) [nmol/min/mg] | h ([1]; substrate D,L-methionine) | S0.5 ([1]; substrate L-methionine) [mM] | Vmax ([1]; substrate L-methionine) [nmol/min/mg] | h ([1]; substrate L-methionine) | S0.5 [1, 7] | Vmax [1, 7] | h [1, 7] | S0.5 [1, 8] | Vmax [1, 8] | h [1, 8] | substrate acceptance (which amino acid substrates are converted) [2] | product inhibition by SAM [3] | other results
I317A: I317A SAM synthase variant (SEQ ID NO: 2) of Bacillus subtilis SAM synthase | 2.99 ± 0.23 | 44.1 ± 1.6 | 1.2 ± 0.1 | 0.92 ± 0.05 | 37.7 ± 0.8 | 1.1 ± 0.1 | 0.46 ± 0.02 | 34.8 ± 0.5 | 1.3 ± 0.1 | 3.56 ± 0.45 mM | 35.4 ± 2.6 nmol/min/mg | 1.4 ± 0.1 | 0.90 ± 0.05 mM | 34.2 ± 0.7 nmol/min/mg | 1.1 ± 0.1 | active on ethionine, propionine, buthionine and the unsaturated D,L-methylvinylhomocysteine | much less affected by product inhibition; also recorded: less pronounced | S0.5 [1, 6]: 0.79 ± 0.04 mM; Vmax [1, 6]: 22.4 ± 0.4 nmol/min/mg; h [1, 6]: 1.2 ± 0.1; conversion ([4]; production of n-butyl analogue of SAM): 28%; conversion ([4]; production of n-propyl analogue of SAM): 43%
I105A/I317A: I105A/I317A SAM synthase variant (SEQ ID NO: 4) | 3.91 ± 0.27 | 3.0 ± 1.8 | 2.9 ± 0.4 | – | 0.8 ± 0.2 | – | – | – | – | =10.0 mM | =4.0 ± 0.2 nmol min^-1 mg^-1 | 0.8 ± 0.1 | =10.0 mM | =10.8 ± 0.1 nmol min^-1 mg^-1 | 1.0 ± 0.1 | acceptance of the artificial long-chain substrates only; also recorded: prefer long-chain substrates | – | substrate specificity (rank order) ([2]; FIG. 3E, compared to wild-type): S-n-propylhomocysteine>S-n-butylhomocysteine>ethionine>>methionine
Wild-type: wildtype Bacillus subtilis S-Adenosylmethionine (SAM) synthase, SEQ ID NO: 1, recombinantly expressed in E. coli BL21 (DE3) [reference compound] | – | – | – | 1.92 ± 0.12 | 90.8 ± 1.6 | 1.7 ± 0.2 | 1.04 ± 0.14 | 93.2 ± 3.1 | 1.1 ± 0.1 | – | – | – | – | – | – | did not accept any of these methionine derivatives | inhibited by its product SAM | inhibition by the D-enantiomer of methionine ([1]; FIG. 3A, in words): not inhibited by the D-enantiomer of methionine; S0.5 [1, 9]: 1.86 ± 0.07 mM; Vmax [1, 9]: 79.8 ± 2.3 nmol/min/mg; h [1, 9]: 2.2 ± 0.2
I317C: Bacillus subtilis SAM synthase with position 317 substituted by cysteine; tolerably active enzyme | – | – | – | – | – | – | – | – | – | – | – | – | – | – | – | – | – | activity (conversion) ([5]; 5 mM D,L-buthionine): 6.0 ± 0.3 nmol/min/mg; activity (conversion) ([5]; 5 mM D,L-ethionine): 16.4 ± 0.7 nmol/min/mg; activity (conversion) ([5]; 5 mM D,L-methionine): 59.4 ± 0.4 nmol/min/mg; activity (conversion) ([5]; 5 mM D,L-propionine): 8.4 ± 0.3 nmol/min/mg
I317V: I317V SAM synthase variant (SEQ ID NO: 3) of Bacillus subtilis SAM synthase | 10.94 ± 2.70 | 51.2 ± 9.1 | 1.3 ± 0.1 | 1.71 ± 0.12 | 446.2 ± 13.8 | 1.3 ± 0.1 | 0.72 ± 0.04 | 408.0 ± 7.7 | 1.2 ± 0.1 | – | – | – | – | – | – | also converts ethionine | – | L-amino acid converted ([4]; ethionine): 89%; L-amino acid converted ([4]; methionine): 84%
I105V/I317A: I105V/I317A SAM synthase variant (SEQ ID NO: 6) | 4.25 ± 0.20 | 5.7 ± 0.3 | 4.6 ± 0.8 | 3.77 ± 1.02 | 17.0 ± 2.0 | 1.0 ± 0.1 | – | – | – | 4.20 ± 0.41 mM | 11.9 ± 0.9 nmol/min/mg | 2.0 ± 0.2 | 1.86 ± 0.41 mM | 17.7 ± 1.5 nmol/min/mg | 1.0 ± 0.1 | prefer long-chain substrates | – | –
